{"source": "patent US20140011772A1", "about": "“COMPOSITIONS AND METHODS FOR TREATING CONDITIONS ASSOCIATED WITH NEURONAL DYSFUNCTION” (NORTHWESTERN UNIVERSITY, priority 2009, published 2014)", "key": {"[1]": {"tested_on": "CA1 pyramidal neurons in 4-AP bathed slices", "experiment": "4-AP induced burst firing, whole-cell current clamp in 4-AP bathed slices", "format": "cell-based, rat", "protocol": "The trace segments between dashed lines are shown on an expanded time scale (insets) to resolve bursts. (B) Firing frequency in response to depolarizing current injections. (C) Interspike interval ratio (ISI) against different current injections. For each current step, the ISI ratio was obtained dividing the interval between the first two spikes by the mean interspike interval. Recordings were obtained at 24-25° C.\n(§1) Electrophysiological recordings: Slices were visualized with an Axioskop 2FS (Zeiss) upright microscope with a water-immersion 60× objective (0.9 NA, Olympus). For whole cell current-clamp recordings, the bath solution contained kynurenic acid (2 mM) and picrotoxin (0.1 mM) to block fast synaptic transmission, and pipettes were filled with internal solution consisting of: 140K-gluconate, 8 mM NaCl, 2 mM MgCl2, 1 mM EGTA, 2 mM Na2ATP 2, 0.1 mM NaGTP, 10 mM HEPES, pH 7.3 with KOH.\nExperiments were conducted during development of embodiments of the present invention to examine the inhibitory effect of FFA on burst firing. All CA1 pyramidal cells show robust burst firing in the presence of 4-Aminopyridine (4-AP), a potassium channel blocker. Whole-cell current clamp recordings were obtained from CA1 pyramidal neurons in 4-AP bathed slices. These recordings were also performed at 32-33° C. and in the presence of kynurenic acid and picrotoxin."}, "[2]": {"tested_on": "epileptiform discharges in 4AP treated rat hippocampal slices", "experiment": "4AP-induced epileptiform discharges, extracellular recordings from the CA1 area of hippocampal slices", "format": "cell-based", "protocol": "A, extracellular recordings from the CA1 area of a rat hippocampal slices in which epileptic-like activity was induced by bath application of 4AP (50 μM). […] B, in another 4AP treated slice, the effects of different concentrations of FFA were tested.\nSimilar pathophysiologies exist for epilepsy and various chronic pain disorders (see, e.g., Pappagallo M (2003) Clin Ther. 25:2506-38; herein incorporated by reference in its entirety). […] Epileptic discharges were induced in a slice of rodent hippocampal tissue by bath application of the voltage-gated potassium channel blocker 4-aminopyridine (4AP) (see, e.g., Lopantsev V, Avoli M. (1998) J Physiol. 509:785-96; Brückner C, et al., Neurosci Lett. 268:163-5; each herein incorporated by reference in their entireties). […] The effect of flufenamic acid on hippocampal neurons, for example, involves induction of neuronal hyperpolarization by activating a background potassium conductance, and a reduction of neuronal excitability by inhibition of the voltage-gated sodium current.\nHippocampal brain slices: 11- to 20-day-old Long-Evans rats were anesthetized with isoflurane and killed by decapitation. The brain was removed from the skull in ice-cold artificial cerebrospinal fluid (ACSF), containing: 125 mM NaCl, 25 mM NaHCO3, 2.5 mM KCl, 1.25 mM NaH2PO4, 1.8 mM CaCl2, 1 mM MgCl2 and 2 mM 5 glucose, bubbled with 95% O2 and 5% CO2 (pH 7.4). Transverse hippocampal slices (300 μm thick) were cut using a vibroslicer (Dosaka) and stored in a solution containing: 87 mM NaCl, 25 mM NaHCO3, 2.5 mM KCl, 1.25 mM NaH2PO4, 0.5 mM CaCl2, 7 mM MgCl2, 75 mM sucrose and 25 mM glucose, bubbled with 95% O2 and 5% CO2; slices were kept at 35° C. for 15-20 minutes and subsequently at 24-25° C."}, "[3]": {"tested_on": "CA1 hippocampal pyramidal neurons", "experiment": "Whole cell current-clamp recordings, firing upon depolarizing current injection", "format": "cell-based, rat", "details": "FFA 0.2 mM", "protocol": "(A) Current clamp recordings obtained (at 32-33° C.) from a CA1 hippocampal neuron in response to depolarizing current injection (150 pA, 1 s, bottom) in control (top trace) and in the presence of FFA (200 μM, middle). (B) Firing frequency in response to a series of current injections (1 s, 30 pA steps) in control and in FFA.\nas §1\nThe effect of FFA on burst and tonic firing of hippocampal pyramidal neurons was examined during development of embodiments of the present invention (FIG. 13). Recordings were obtained in the presence of kynurenic acid (2 mM) and picrotoxin (0.1 mM) to block fast synaptic transmission. […] For a 150 pA depolarizing current pulse the firing frequency decreased from 21.7±1.82 Hz in control conditions to 1.87±0.61 Hz in FFA (FIG. 13A,B)."}, "[4]": {"tested_on": "voltage-gated sodium channels of hippocampal CA1 pyramidal neurons", "experiment": "Voltage-clamp nucleated patch recordings of voltage-gated sodium currents in CA1 pyramidal cells", "format": "cell-based, rat", "protocol": "To study the gating properties of the sodium channels, voltage-clamp recordings were performed in the nucleated patch configuration, which allows almost ideal voltage clamp, even for fast sodium currents (28). Recordings were performed at 24-25° C. using an Axopatch 200B (Axon Instruments) patch-clamp amplifier. Data were sampled at 20 kHz and filtered at 10 kHz. Patch pipettes had resistance of 2.5-4 MΩ (in working solution) and were pulled from Corning #0010 lead glass (WPI) or borosilicate 0.4 mm-walled glass (Dagan). The internal solution was CsCl-based and contained: 140 mM CsCl, 10 mM NaCl, 2 mM MgCl2, 10 mM EGTA, 2 mM Na2ATP, 0.1 mM NaGTP, 10 mM HEPES 10, pH 7.3 with CsOH.\nCapacitive transients were reduced by wrapping the pipettes in parafilm and compensated using the fast compensation circuitry of the amplifier. The whole-cell configuration was obtained and the pyramidal identity of cells was quickly confirmed by presence of a sag in the membrane potential in response to a hyperpolarizing current injection. The pipette was then slowly withdrawn while applying a constant negative pressure (−90 to −130 mbar). After excision, patches were held at −90 mV with a small pressure (−15 to −20 mbar). Sodium currents were then obtained by offline digital subtraction of traces in TTX from control traces.\nDrugs were applied to the patches by using a multi-barrel system consisting of 4 glass capillaries (1.5 mm ID) glued together and connected to a syringe pump (WPIL). The patch-pipette carrying the nucleated patch was inserted into each of the pipes, each containing a different extracellular solution. The system ensures that the solution speed is the same in each barrel. For these recordings, the extracellular solution consisted of HEPES-buffered ACSF: 138 mM NaCl, 10 mM HEPES, 2.5 mM KCl, 2 mM CaCl2, 1 mM MgCl2 and 25 mM glucose (pH 7.3), 50 μM CdCl2, 10 mM TEA, and the drugs of interest.\nThe voltage-dependence of activation was fit with a Boltzmann function f(V)=1/(1+exp(−(V−V1/2)/k)) raised to the third power, where V1/2 is the voltage at which the activation is half-maximal, and k is the slope factor. The voltage-dependence of inactivation was similarly determined using a Boltzmann function, f(V)=1/(1+exp ((V−V1/2)/k)). The time course of recovery from inactivation was fit with a bi-exponential equation of the form, f(t)=1-(A1 exp(−t/τ) +A2 exp(−t/τ2)), yielding two time constants (τ) and relative contribution (A).\nVoltage-gated sodium currents were recorded in nucleated patches from CA1 pyramidal cells from 11- to 20-day-old rats. FFA was tested at 0.2 mM, a concentration similar to that used as Ican blocker (0.5 mM, (32) and as two-pore potassium channels opener (0.1 mM, (40)).\nThe effect of FFA on the amplitude of sodium currents recorded in nucleated patches was investigated using a 30 ms step (to 10 mV) from −70 mV (close to the resting potential of hippocampal pyramidal neurons). 200 μM FFA blocked 34% of the sodium current (FIG. 7). The mechanism of action of FFA on sodium channels was characterized in detail. Even with a cesium-based intracellular solution and in the presence of extracellular TEA and cadmium some contaminating currents could often still be detected in pyramidal cell nucleated patches; therefore analysis was performed on TTX-subtracted traces only. TTX-sensitive current data for the control and the FFA were obtained from different patches."}, "SNI rats": {"tested_on": "SNI rats", "experiment": "Von Frey pain thresholds in the spared nerve injury (SNI) model of chronic neuropathic pain", "format": "in vivo, rat", "details": "for analgesic effect: 10 mg/kg in ethanol, oral; for analgesic effect / effect on pain threshold: 10 mg/kg; for effect on pain threshold: 10 mg/kg oral, both paws / non-operative paw", "protocol": "Von Frey thresholds (a standard measure of pain sensitivity) were measured on the operated paw (left panel) and on the contralateral paw (right panel) in adult rats. 4 animals received the drug (10 mg/kg oral administration), and 4 animals the vehicle only. […] Note the fast onset of the effect, which may be very important for clinical use.\nChronic pain constitutes a primary reason driving people to seek health care. Pain was has been described as “epidemic” by the American Academy of Pain Management (American Pain Society, 1999): 50 million Americans are partially or totally disabled by pain. […] In particular, the spared nerve injury model (SNI), a reliable animal model of chronic neuropathic pain, was used to test the effect of oral administration of FFA. Control experiments were performed administrating the vehicle only. […] KCNK channels regulate neuronal excitability by regulating membrane potential, input resistance and synaptic gain (see, e.g., Taverna S, et al., 2005, J Neurosci Oct. 5; 25(40):9162-70; Meuth S G, et al., 2003 J Neurosci. Jul. 23; 23(16):6460-9; each herein incorporated by reference in their entireties)."}, "[5]": {"details": "FIG. 5: 100 ms pre-pulses, 30 ms test pulse to 0 mV, 2 nucleated patches"}}, "note": "Entries after “also recorded” stand apart in the source; their conditions may differ.", "data": [{"smiles": "O=C(O)c1ccccc1Nc1cccc(C(F)(F)F)c1", "note": "[FFA, 2-[[3-(trifluoromethyl)phenyl]amino]benzoic acid]", "values": [{"measurement": "effect on spikes and burst firing", "setting": "[1]; 4-AP slice epilepsy model, bath application of FFA", "value": "dramatically reduced both the total number of spikes and bursting; also recorded: completely abolishes burst firing"}, {"measurement": "interspike interval (ISI) ratio", "setting": "[1]; 120 pA current injection, 4-AP, FFA 0.2 mM", "value": "0.74±0.06"}, {"measurement": "effect on epileptiform discharges", "setting": "[2]; 50 μM FFA, 4AP treated slice", "value": "small reduction in the amplitude of individual events"}, {"measurement": "effect on epileptiform discharges", "setting": "[2]; 100 μM FFA, 4AP treated slice", "value": "strongly reduced the discharge frequency"}, {"measurement": "effect on epileptiform discharges", "setting": "[2]; 200 μM FFA, 4AP 50 μM", "value": "completely and reversibly inhibited the epileptiform discharges; also recorded: completely abolished the discharges"}, {"measurement": "antiepileptic effect, concentration dependence", "setting": "[2]; 4AP treated slices, 50-200 μM", "value": "clear dose-dependent effect; also recorded: potent, concentration dependent, antiepileptic effect"}, {"measurement": "firing frequency", "setting": "[3]; 150 pA, 1 s depolarizing current pulse, kynurenic acid and picrotoxin", "value": "1.87±0.61", "unit": "Hz"}, {"measurement": "effect on number of action potentials / repetitive firing", "setting": "[3]; 1 s-long depolarizing current injection", "value": "strongly decreased the number of action potentials; also recorded: effectively decreases repetitive firing"}, {"measurement": "Na+ channel activation slope factor (k/3)", "setting": "[4]; 200 μM FFA", "value": "5.6±0.27", "unit": "mV"}, {"measurement": "block of the sodium current", "setting": "[4]; 200 μM FFA, 30 ms step from −70 mV", "value": 34, "unit": "%"}, {"measurement": "mean peak Na+ current amplitude", "setting": "[4]; 200 μM FFA, 50 ms prepulse to −70 mV, test pulse to −10 mV, 15 nucleated patches", "value": "−183.6±21.7", "unit": "pA"}, {"measurement": "Na+ channel activation mid-point potential", "setting": "[4]; 200 μM FFA, Boltzmann raised to third power", "value": "−11.3±1.36", "unit": "mV"}, {"measurement": "shift in voltage dependence of inactivation", "setting": "[4]; 50 ms prepulse", "value": "~12", "unit": "mV"}, {"measurement": "steady-state inactivation mid-point potential", "setting": "[4]; 50 ms prepulse, in FFA", "value": "−67.8±1.4", "unit": "mV"}, {"measurement": "steady-state inactivation slope factor", "setting": "[4]; 50 ms prepulse, in FFA", "value": "10.7±0.5", "unit": "mV"}, {"measurement": "steady-state inactivation mid-point potential", "setting": "[4]; 200 ms prepulse, in FFA", "value": "−74.1±2.6", "unit": "mV"}, {"measurement": "steady-state inactivation slope factor", "setting": "[4]; 200 ms prepulse, in FFA", "value": "8.9±1.0", "unit": "mV"}, {"measurement": "sodium channel inactivation Boltzmann function half point", "setting": "[4]; [5]", "value": "−89.7", "unit": "mV"}, {"measurement": "sodium channel inactivation Boltzmann slope", "setting": "[4]; [5]", "value": 9.1, "unit": "mV"}, {"measurement": "time constant of inactivation onset", "setting": "[4]; at 0 mV, in FFA (0.2 mM)", "value": "0.70 ± 0.03", "unit": "ms"}, {"measurement": "fraction of sodium channels available for activation", "setting": "[4]; at −70 mV, in FFA", "value": "0.57±0.04"}, {"measurement": "effect on the sodium channel activation curve", "setting": "[4]; hippocampal pyramidal neurons", "value": "No significant effect; also recorded: only minimal effect"}, {"measurement": "analgesic effect", "setting": "SNI rats", "value": "rapid and potent analgesic effect"}, {"measurement": "analgesic effect", "setting": "SNI rats; listed as flufenamic acid", "value": "potent analgesic effect"}, {"measurement": "increase of Von Frey threshold on the injured paw", "setting": "SNI rats; 10 mg/kg oral administration, operated paw", "value": "more than 10 times"}, {"measurement": "effect on pain threshold", "setting": "SNI rats", "value": "significantly increased the pain threshold in the non-operative paw"}, {"measurement": "effect on pain threshold", "setting": "SNI rats; listed as flufenamic acid", "value": "increased pain threshold in both paws"}]}]}
